The values below come from US12162888B2, “Carboxamides as ubiquitin-specific protease inhibitors” (Valo Early Discovery, Inc., priority 2018, dated 2024).

One experiment addresses T1, USP28 (His-tagged USP28-FL-mammalian) (Homo sapiens, UniProt Q96RU2).
T1 construct: Expression of USP28 (1-1077)-TEV-6*His (pTT5 vector) was carried out in Expi293f cells; made in house; host or cells: Expi293F cells (pTT5 vector)
T1 sequence (Q96RU2 1-1077): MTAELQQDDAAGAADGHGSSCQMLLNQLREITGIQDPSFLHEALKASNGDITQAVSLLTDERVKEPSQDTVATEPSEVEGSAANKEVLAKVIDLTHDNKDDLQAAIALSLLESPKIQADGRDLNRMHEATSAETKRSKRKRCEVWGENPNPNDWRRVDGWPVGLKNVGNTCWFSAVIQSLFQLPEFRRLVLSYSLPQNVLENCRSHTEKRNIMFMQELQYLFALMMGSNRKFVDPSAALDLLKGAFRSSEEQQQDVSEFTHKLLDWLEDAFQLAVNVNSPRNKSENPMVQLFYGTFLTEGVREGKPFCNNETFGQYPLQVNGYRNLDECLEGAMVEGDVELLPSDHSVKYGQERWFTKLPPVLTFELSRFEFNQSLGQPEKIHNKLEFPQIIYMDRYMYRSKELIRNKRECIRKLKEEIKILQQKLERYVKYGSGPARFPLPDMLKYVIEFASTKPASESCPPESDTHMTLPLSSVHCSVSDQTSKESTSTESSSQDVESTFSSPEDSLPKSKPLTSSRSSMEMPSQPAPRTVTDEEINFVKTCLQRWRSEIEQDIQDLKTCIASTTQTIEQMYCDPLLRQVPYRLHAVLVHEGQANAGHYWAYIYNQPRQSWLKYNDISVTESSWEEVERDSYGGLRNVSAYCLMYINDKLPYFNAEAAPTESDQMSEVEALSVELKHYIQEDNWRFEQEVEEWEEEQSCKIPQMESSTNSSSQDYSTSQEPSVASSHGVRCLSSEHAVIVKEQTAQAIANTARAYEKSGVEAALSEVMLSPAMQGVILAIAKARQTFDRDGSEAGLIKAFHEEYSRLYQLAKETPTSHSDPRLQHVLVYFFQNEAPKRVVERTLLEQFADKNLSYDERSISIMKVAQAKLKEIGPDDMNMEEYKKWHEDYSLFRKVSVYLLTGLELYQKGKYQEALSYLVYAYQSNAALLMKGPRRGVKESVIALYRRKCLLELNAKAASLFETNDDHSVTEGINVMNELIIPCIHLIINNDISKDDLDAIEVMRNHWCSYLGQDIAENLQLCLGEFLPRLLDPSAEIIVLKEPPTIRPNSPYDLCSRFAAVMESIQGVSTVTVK
As to the kind of experiment: Ubiquitin-Rhodamine 110 Assay for USP28 Activity, Example A-1(a). The format is biochemical. Particulars: Ubiquitin-Rhodamine 110 assay, IC50 ranges, read-out: USP28 A-1(a) IC50. The method in brief: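 Full-length His-tagged human USP28 (1-1077), expressed in Expi293F cells, was used at […] with 25 nM Ub-Rh110 (<<Km) in 20 mM Tris pH 8.0, 3 mM BME, 0.03% BGG and 0.01% Triton X-100. Compounds (25 μM-1.3 nM, 10-point) were preincubated with enzyme for 30 min, and the reaction ran 45 min at room temperature before a citric acid stop. Fluorescence was read at 485/535 nm, and IC50 came from 4-parameter fits of percent inhibition.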
Take `N#Cc1c(N2CC3CCC(C2)N3)cc(F)c2c1OC[C@H](NC(=O)c1cnc3c(c1)[C@@H]1CC1CN3)C2` (stereo partly drawn) [Example 228, (6aS,7aR)-N-[(3R)-8-cyano-7-(3,8-diazabicyclo[3.2.1]octan-3-yl}-5-fluoro-3,4-dihydro-2H-1-benzopyran-3-yl]-5H,6H,6aH,7H,7aH-cyclopropa[c]1,8-naphthyridine-2-carboxamide]: the IC50 fell in the range of 200 to 2000 nM.

The same experiment, now with this note: Ubiquitin-Rhodamine 110 assay, read-out: USP28 A-1(a) IC50 range.
`[2H]C1([2H])c2c(F)cc(N3CCNCC3)cc2OC[C@H]1NC(=O)c1sc2nc(C)ccc2c1N` (single isomer, unassigned) [Example 33-2]: the IC50 fell in the range of 200 to 2000 nM. Same read-out and setting: in the case of `CCn1ccc2cc(C(=O)N[C@H]3CCc4nc(N5C[C@@H](COC)[C@@H](N)C5)ccc4C3)cnc21` (single isomer, unassigned) [Example 400] it was 200 to 2000 nM; in that of `CCn1ccc2cc(C(=O)N[C@H]3CCc4nc(N5C[C@H](COC)[C@H](N)C5)ccc4C3)cnc21` (single isomer, unassigned) [Example 401], 200 to 2000 nM; in that of `Cc1ccc2c(N)c(C(=O)N[C@H]3COc4cc(N5C[C@H](CF)[C@H](N)C5)ccc4C3)sc2n1` (single isomer, unassigned) [Example 424], 1 to 50 nM. On the same count and under the same terms, in the case of `Cc1ccc2c(N)c(C(=O)N[C@H]3COc4cc(N5C[C@H](N)[C@@]6(CCOC6)C5)ccc4C3)sc2n1` (single isomer, unassigned) [Example 439] it was 1 to 50 nM; in that of `Cc1ccc2c(N)c(C(=O)N[C@H]3COc4cc(N5C[C@H]6CC[C@@H]5CN6)ncc4C3)sc2n1` [Example 76, N-((R)-7-((1R,4R)-2,5-diazabicyclo[2.2.2]octan-2-yl)-3,4-dihydro-2H-pyrano[3,2-c]pyridin-3-yl)-3-amino-6-methylthieno[2,3-b]pyridine-2-carboxamide], 1 to 50 nM. The same measure, in the same setting: for `CO[C@H]1CN(c2ccc3c(c2)OC[C@H](NC(=O)c2sc4nc(C)cnc4c2N)C3)C[C@@H]1N` [Example 117] the value was 1 to 50 nM; for `CO[C@H]1CN(c2ccc3c(c2)OC[C@H](NC(=O)c2sc4nc(C)sc4c2N)C3)CC1N` (stereo partly drawn) [Example 118, 6-amino-N-[(3R)-7-[(3,4S)-3-amino-4-methoxypyrrolidin-1-yl]-3,4-dihydro-2H-1-benzopyran-3-yl]-2-methylthieno[2,3-d][1,3]thiazole-5-carboxamide], 50 to 200 nM; for `COC[C@@]1(C)CN(c2ccc3c(n2)CC[C@H](NC(=O)c2sc4nc(C)ccc4c2N)C3)C[C@H]1N` [Example 343, 3-amino-N-[(6S)-2-[(3S,4S)-4-amino-3-(methoxymethyl)-3-methylpyrrolidin-1-yl]-5,6,7,8-tetrahydroquinolin-6-yl]-6-methylthieno[2,3-b]pyridine-2-carboxamide], 50 to 200 nM. In the case of `Cc1ccc2c(N)c(C(=O)N[C@H]3CCc4nc(N5C[C@H](N)[C@@]6(CCOC6)C5)ccc4C3)sc2n1` [Example 437, 3-amino-N-[(6S)-2-[(5R,9R)-9-amino-2-oxa-7-azaspiro[4.4]nonan-7-yl]-5,6,7,8-tetrahydroquinolin-6-yl]-6-methylthieno[2,3-b]pyridine-2-carboxamide], the IC50 lay in the range of 50 to 200 nM. Consider `Cc1ccc2c(N)c(C(=O)N[C@H]3CCc4nc(N5C[C@@H](N)[C@]6(CCOC6)C5)ccc4C3)sc2n1` [Example 438, 3-amino-N-[(6S)-2-[(5S, 9S)-9-amino-2-oxa-7-azaspiro[4.4]nonan-7-yl]-5,6,7,8-tetrahydroquinolin-6-yl]-6-methylthieno[2,3-b]pyridine-2-carboxamide], for which the IC50 is 50 to 200 nM. Still for that read-out and setting: in the case of `CN[C@H]1CN(c2ccc3c(n2)CC[C@H](NC(=O)c2sc4nc(C)ccc4c2N)C3)C[C@H]1CF` [Example 441, 3-amino-N-[(6S)-2-[(3R,4R)-3-(fluoromethyl)-4-(methylamino)pyrrolidin-1-yl]-5,6,7,8-tetrahydroquinolin-6-yl]-6-methylthieno[2,3-b]pyridine-2-carboxamide] it was 50 to 200 nM; in that of `CN[C@@H]1CN(c2ccc3c(n2)CC[C@H](NC(=O)c2sc4nc(C)ccc4c2N)C3)C[C@@H]1CF` [Example 442, 3-amino-N-[(6S)-2-[(3S,4S)-3-(fluoromethyl)-4-(methylamino)pyrrolidin-1-yl]-5,6,7,8-tetrahydroquinolin-6-yl]-6-methylthieno[2,3-b]pyridine-2-carboxamide], 50 to 200 nM.

For the molecule `Cc1ccc2c(N)c(C(=O)N[C@@H]3CCc4nc(N5C[C@@H](CF)[C@@H](N)C5)ncc4C3)sc2n1` [Example 445, 3-amino-N-[(6R)-2-[(3R,4R)-3-amino-4-(fluoromethyl)pyrrolidin-1-yl]-5,6,7,8-tetrahydroquinazolin-6-yl]-6-methylthieno[2,3-b]pyridine-2-carboxamide], the IC50 was 200 to 2000 nM.

For the molecule `Cc1ccc2c(N)c(C(=O)N[C@@H]3CCc4nc(N5C[C@H](CF)[C@H](N)C5)ncc4C3)sc2n1` [Example 446, 3-amino-N-[(6R)-2-[(3S,4S)-3-amino-4-(fluoromethyl)pyrrolidin-1-yl]-5,6,7,8-tetrahydroquinazolin-6-yl]-6-methylthieno[2,3-b]pyridine-2-carboxamide], the IC50 was 200 to 2000 nM.

Staying with this experiment, now noted: biochemical IC50 range, Ubiquitin-Rhodamine 110 assay, read-out: USP28 A-1(a).
Take `Cc1ccc2c(N)c(C(=O)N[C@H]3CCc4c(F)c(N5CC6CCC(C5)N6)cc(F)c4C3)sc2n1` (single isomer, unassigned) [Example 603]: the IC50 is 1 to 50 nM. With `COC1CN(c2ccc3c(c2)CC[C@H](NC(=O)c2sc4nc(C)cnc4c2N)C3)CC1N` (stereo in doubt) [Example 130, 7-amino-N-[(2S)-6-[(3S,4S)-3-amino-4-methoxypyrrolidin-1-yl]-1,2,3,4-tetrahydronaphthalen-2-yl]-3-methylthieno[2,3-b]pyrazine-6-carboxamide], the IC50 is 50 to 200 nM.

Consider `CO[C@H]1CN(c2ccc3c(c2)CC[C@H](NC(=O)c2sc4nc(C)ccc4c2N)C3)C[C@H]1N` [Example 144, 3-amino-N-[(2S)-6-[(3R,4S)-3-amino-4-methoxypyrrolidin-1-yl]-1,2,3,4-tetrahydronaphthalen-2-yl]-6-methylthieno[2,3-b]pyridine-2-carboxamide], for which the IC50 is 50 to 200 nM. Still for that read-out and setting: for `CO[C@@H]1CN(c2ccc3c(c2)OC[C@H](NC(=O)c2sc4nc(C)cnc4c2N)C3)C[C@@H]1N` [Example 147, 7-amino-N-[(3R)-7-[(3S,4R)-3-amino-4-methoxypyrrolidin-1-yl]-3,4-dihydro-2H-1-benzopyran-3-yl]-3-methylthieno[2,3-b]pyrazine-6-carboxamide] the value was 50 to 200 nM; for `Cc1ccc2c(N)c(C(=O)N[C@H]3COc4cc(N5C[C@H](N)[C@]6(CCOC6)C5)ccc4C3)sc2n1` [Example 656, 3-amino-N-[(3R)-7-[(5S,9R)-9-amino-2-oxa-7-azaspiro[4.4]nonan-7-yl]-3,4-dihydro-2H-1-benzopyran-3-yl]-6-methylthieno[2,3-b]pyridine-2-carboxamide], 1 to 50 nM. Same read-out and setting: in the case of `Cc1ccc2c(N)c(C(=O)N[C@H]3CCc4cc(N5C[C@H](CF)[C@H](N)C5)ccc4C3)sc2n1` [Example 657, 3-amino-N-[(2S)-6-[(3S,4S)-3-amino-4-(fluoromethyl)pyrrolidin-1-yl]-1,2,3,4-tetrahydronaphthalen-2-yl]-6-methylthieno[2,3-b]pyridine-2-carboxamide] it was 50 to 200 nM; in that of `Cc1ccc2c(N)c(C(=O)N[C@H]3COc4cc(N5C[C@H](N)[C@](C)(CF)C5)ccc4C3)sc2n1` [Example 658, 3-amino-N-[(3R)-7-[(3R,4R)-4-amino-3-(fluoromethyl)-3-methylpyrrolidin-1-yl]-3,4-dihydro-2H-1-benzopyran-3-yl]-6-methylthieno[2,3-b]pyridine-2-carboxamide], 1 to 50 nM.

With `Cc1ccc2c(N)c(C(=O)N[C@H]3COc4cc(N5C[C@H](N)[C@@](C)(CF)C5)ccc4C3)sc2n1` [Example 659, 3-amino-N-[(3R)-7-[(3S,4R)-4-amino-3-(fluoromethyl)-3-methylpyrrolidin-1-yl]-3,4-dihydro-2H-1-benzopyran-3-yl]-6-methylthieno[2,3-b]pyridine-2-carboxamide], the IC50 fell in the range of 1 to 50 nM.
